Key:
Format in all cases: biochemical
[1] = target: T1, TaKaRa Taq DNA polymerase (Thermus aquaticus, UniProt P19821); test: Effects of acidic substances on TaKaRa Taq DNA polymerase, PCR of 8 kb fragment (Example 5(2)); set-up: key: ++: Intensive amplification being observed; +: Amplification being observed; ±: Slight amplification being observed; −: No amplification being observed; conditions: 10 U TaKaRa Taq, 100 pg λDNA, 25 μl, 30 cycles 98°C 5 s-68°C 3 min, added 0.25 ng polysaccharide-F, 0.25 ng dextran sulfate or 0.5 μg sodium alginate
T1 construct: purchased Takara Shuzo Co., Ltd
Text: Using as acidic substances the sulfated-fucose-containing polysaccharide-F obtained by the process described in Item (1) of Example 5, dextran sulfate powder (manufactured by Onco), or sodium alginate (100 to 150 centipoises, manufactured by Wako Pure Chemicals), the effects of these acidic substances on the activity of TaKaRa Taq DNA polymerase (manufactured by Takara Shuzo Co., Ltd.) were examined.
A PCR reagent mixture comprising λDNA as a template, primers λ1 and λ7 as a primer pair and TaKaRa Taq DNA polymerase as a DNA polymerase was prepared, and PCR was carried out. The PCR reagent mixture was prepared so as to have the following composition.
Buffer for TaKaRa Taq DNA polymerase, 10 U of TaKaRa Taq DNA polymerase, 100 pg of λDNA, 0.2 mM each of DATP, dCTP, dGTP and dTTP, and 5 pmol each of primers λ1 and λ7 (final volume being 25 μl). Further, 0.25 ng of the sulfated-fucose-containing polysaccharide-F, 0.25 ng of dextran sulfate powder, or 0.5 μg of sodium alginate were added as acidic substances to the above PCR reagent mixture.
The reaction was carried out in 30 cycles for a total time period of PCR of about 110 minutes, wherein one cycle of reaction comprises a process consisting of 98° C., 5 seconds-68° C., 3 minutes. […]

Polymerase A [2] = test: Rapid PCR by combination of Polymerase A with acidic substance, about 10 kb fragment (Example 6(1)); set-up: key: ++: Intensive amplification being observed; +: Amplification being observed; ±: Slight amplification being observed; −: No amplification being observed; conditions: 0.5 μl Polymerase A, 10 pg λDNA, 2.5 μg sodium alginate, 30 cycles 98°C 5 s-68°C 75 s
Method: (1) Rapid PCR by Combination of Polymerase A with Acidic Substance Using λDNA as template, a PCR reagent mixture comprising λDNA as a template, primers λ1 and λ8 as a primer pair was prepared, and PCR was carried out. The composition for a PCR reagent mixture is as follows.
50 mM Tris-acetate (pH 8.5), 0.2 mM each of dATP, dCTP, dGTP and dTTP, 3 mM magnesium acetate, 50 mM potassium acetate, 10 pg of λDNA, 0.5 μl of Polymerase A and 10 pmol each of primers λ1 and λ8 (final volume being 25 μl). Further, 2.5 μg of sodium alginate was added to the above PCR reagent mixture. As a control, a PCR reagent mixture without adding sodium alginate was also prepared.
Reaction Conditions: The reaction was carried out in 30 cycles, wherein one cycle of reaction comprises a process consisting of 98° C., 5 seconds-68° C., 75 seconds. The reaction was carried out in fast mode using TaKaRa PCR Thermal Cycler PERSONAL (manufactured by Takara Shuzo Co., Ltd.).
After the termination of reaction, 6 μl each of the resulting sample was electrophoresed on 1% agarose gel containing ethidium bromide in an amount of 0.00005%, thereby confirming an amplified fragment of about 10 kb.

Polymerase B [3] = test: Combination of spergualins and acidic substances with Polymerase B, 10 kb fragment of λDNA (Example 8(1)); set-up: key: + to ++++: Extent of amplification is shown in 4 grades.; + to ++++: Extent of amplification is shown in 4 grades.; + to ++++: Extent of amplification is shown in 4 grades.; + to ++++: Extent of amplification is shown in 4 grades.; −: No amplification being observed; conditions: No 15-deoxyspergualin/2.5 μg sodium alginate, 0.5 μl Polymerase B, 10 pg λDNA, 30 cycles 98°C 5 s-68°C 90 s
Method: (1) A PCR reagent mixture comprising λDNA as a template and primers λ1 and λ8 as a primer pair was prepared, and rapid PCR was carried out. In this PCR, Polymerase B was used. As the spergualins, 15-deoxyspergualin trihydrochloride was used, and as the acidic substances, sodium alginate (manufactured by Wako Pure Chemicals) was used. The composition for a PCR reagent mixture is shown below.
50 mM Tris-acetate buffer (pH 8.5), 0.2 mM each of dATP, dCTP, dGTP and dTTP, 3 mM magnesium acetate, 50 mM potassium acetate, 10 pg of λDNA, 10 pmol each of primers λ1 and λ8. To the above PCR reagent mixture was added 0.5 μl of Polymerase B, and further 15-deoxyspergualin trihydrochloride and sodium alginate were added in combination at concentrations shown in Table 10, making up a final volume of 50 μl. In addition, as controls, there were respectively prepared a PCR reagent mixture in which 2.5 μg of sodium alginate was added without adding 15-deoxyspergualin trihydrochloride, and a PCR reagent mixture in which both 15-deoxyspergualin trihydrochloride and sodium alginate were not added.
Rapid PCR was carried out in 30 cycles for a total time period of PCR of about 65.5 minutes, wherein one cycle of reaction comprises a process consisting of 98° C., 5 seconds-68° C., 90 seconds. […]

Polymerase A [4] = test: Combination of spergualins and acidic substances with Polymerase A, 20 kb fragment of E. coli genomic DNA (Example 8(2)); set-up: key: ++: Intensive amplification being observed; +: Amplification being observed; ±: Slight amplification being observed; −: No amplification being observed; conditions: No 15-deoxyspergualin/2.5 μg sodium alginate, 0.5 μl Polymerase A, 5 ng E. coli genomic DNA, 30 cycles 98°C 5 s-68°C 3 min
Method: (2) The effects of the combination of spergualins and acidic substances on the DNA polymerase were studied in a case where template DNA was E. coli genomic DNA. The composition for a PCR reagent mixture is shown below.
The composition for the PCR reagent mixture was the same as that in Item (1) of Example 8, except for using 5 ng of E. coli genomic DNA (manufactured by Takara Shuzo Co., Ltd.) and 10 pmol each of primers of Eco-1 and Eco-6. To the above PCR reagent mixture was added 0.5 μl of Polymerase A, and further were added in combination 2.5 μg of sodium alginate and 15-deoxyspergualin trihydrochloride so as to have a final concentration of 1 μM, 5 μM or 10 μM, respectively, making up a final volume of 50 μl. In addition, as controls, there were respectively prepared a PCR reagent mixture in which 2.5 μg of sodium alginate was only added without adding 15-deoxyspergualin trihydrochloride, and a PCR reagent mixture in which both 15-deoxyspergualin trihydrochloride and sodium alginate were not added.
Rapid PCR was carried out in 30 cycles for a total time period of PCR of about 110 minutes, wherein one cycle of reaction comprises a process consisting of 98° C., 5 seconds-68° C., 3 minutes. […]

Polymerase B [5] = test: Rapid PCR by combination of Polymerase B with acidic substance, 12 kb fragment (Example 6(2)); set-up: key: + to +++: Extent of amplification is shown in 3 grades.; + to +++: Extent of amplification is shown in 3 grades.; + to +++: Extent of amplification is shown in 3 grades; conditions: 0.5 μl Polymerase B, 10 pg λDNA, 25 μl, 30 cycles 98°C 5 s-68°C 3 min, added 0.75 ng polysaccharide-F or 5 μg sodium alginate
Method: A PCR reagent mixture comprising λDNA as a template and primers λ1 and λ9 as a primer pair was prepared, and PCR was carried out. The composition for a PCR reagent mixture is as follows.
Buffer for TaKaRa EX Taq DNA polymerase, 0.2 mM each of dATP, dCTP, dGTP and dTTP, 10 pg of λDNA, 0.5 μl of Polymerase B and 5 pmol each of primers λ1 and λ9 (final volume being 25 μl). Further, 0.75 ng of sulfated-fucose-containing polysaccharide-F or 5 μg of sodium alginate was added, respectively, to the above PCR reagent mixture.
(§1) The reaction was carried out in 30 cycles, wherein one cycle of reaction comprises a process consisting of 98° C., 5 seconds-68° C., 3 minutes. After the termination of reaction, 5 μl of the resulting sample was electrophoresed on 1% agarose gel containing ethidium bromide in an amount of 0.00005%, thereby confirming an amplified fragment.

λDNA = test: Effect of amount of DNA polymerase and acidic substance, PCR of 10 kb fragment (Example 7); conditions: sodium alginate 2.5 μg added to Polymerase B; image analyzer FM-BIO
Method: A PCR reagent mixture comprising λDNA as a template and primers λ1 and λ8 as a primer pair was prepared, and PCR was carried out. In this PCR, TaKaRa EX Taq DNA polymerase and Polymerase B were used. The composition for a PCR reagent mixture is shown below.
Buffer for TaKaRa EX Taq DNA polymerase, 0.2 mM each of dATP, dCTP, dGTP and dTTP, 10 pg of λDNA, 1.25 U of TaKaRa EX Taq DNA polymerase or 0.5 μl of Polymerase B and 10 pmol each of primers λ1 and λ8 (final volume being 50 μl).
Further, to the above PCR reagent mixture was added 2.5 μg of sodium alginate, to prepare a PCR reagent mixture.
as §1, with “30 cycles for a total period for PCR of about 80 minutes,” for “30 cycles,”, “C., 2” for “C., 3”, “reaction, 8” for “reaction, 5”

T1 sequence (P19821 whole entry, the tested form may be a part): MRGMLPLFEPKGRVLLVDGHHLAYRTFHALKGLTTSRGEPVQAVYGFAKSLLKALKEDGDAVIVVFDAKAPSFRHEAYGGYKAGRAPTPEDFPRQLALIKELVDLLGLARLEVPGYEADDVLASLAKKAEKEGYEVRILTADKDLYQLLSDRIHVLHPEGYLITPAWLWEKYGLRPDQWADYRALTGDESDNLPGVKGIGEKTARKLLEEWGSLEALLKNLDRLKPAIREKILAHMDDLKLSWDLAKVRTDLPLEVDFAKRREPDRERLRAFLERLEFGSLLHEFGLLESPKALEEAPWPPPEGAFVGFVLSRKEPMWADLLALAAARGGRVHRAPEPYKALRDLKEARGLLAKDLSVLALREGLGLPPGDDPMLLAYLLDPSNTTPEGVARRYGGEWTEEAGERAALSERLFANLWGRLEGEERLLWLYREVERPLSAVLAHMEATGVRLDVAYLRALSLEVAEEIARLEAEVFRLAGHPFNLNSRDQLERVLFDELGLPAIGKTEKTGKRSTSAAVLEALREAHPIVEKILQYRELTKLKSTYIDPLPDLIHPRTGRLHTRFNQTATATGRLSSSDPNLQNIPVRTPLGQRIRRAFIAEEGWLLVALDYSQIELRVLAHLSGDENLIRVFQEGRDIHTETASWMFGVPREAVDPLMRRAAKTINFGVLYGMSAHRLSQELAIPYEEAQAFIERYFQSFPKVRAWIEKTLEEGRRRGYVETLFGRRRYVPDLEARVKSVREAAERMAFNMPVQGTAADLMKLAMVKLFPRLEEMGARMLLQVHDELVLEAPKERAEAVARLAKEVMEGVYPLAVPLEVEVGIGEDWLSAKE

Substance: dextran sulfate [Dextran Sulfate Powder]
- Amplification Results [1]: ++

Substance: sodium alginate
- Amplification Results (Polymerase A [2]): ++
- Amplification Results (Polymerase B [3]): +
- Amplification Results (Polymerase A [4]): ±
- Amplification Results (Polymerase B [5]): +++
- Amount of the amplified product compared to the case where no sodium alginate was added (λDNA): about five times
- Amplification Results [1]: ++
